Assay results reported in PubChem BioAssay AID2060606 (Molecular Pharmacology Branch, DTP, NCI, 2025).

Test system: 922993-354-T-J3-PDC complex spheroids, viability, % test/control
Assay: Anticancer human tumor 922993-354-T-J3-PDC patient-derived endometrial carcinoma cell line growth inhibition [CLK]
Conditions: for IC50: curve of first compound; for viability, T/C: stronger effect = lower value
In short: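 Patient-derived tumor cells grown as complex spheroids with HUVEC endothelial cells and mesenchymal stem cells, treated with drug combinations. Concentrations descend in half-log steps from near clinical Cmax, or from 10 microM if Cmax unknown.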

[1] = second compound 0.0316 µM, first compound 0.0316 µM
[2] = second compound 0.0316 µM, first compound 0.1 µM
[3] = second compound 0.1 µM, first compound 0.0316 µM
[4] = second compound 0.1 µM, first compound 0.1 µM
[5] = second compound 0.316 µM, first compound 0.0316 µM
[6] = second compound 0.316 µM, first compound 0.1 µM
[7] = second compound 1 µM, first compound 0.0316 µM
[8] = second compound 1 µM, first compound 0.1 µM
[9] = second compound 3.16 µM, first compound 0.0316 µM
[10] = second compound 3.16 µM, first compound 0.1 µM
[11] = second compound 10 µM, first compound 0.0316 µM
[12] = second compound 10 µM, first compound 0.1 µM
[13] = second compound 0.0316 µM, first compound 0.316 µM
[14] = second compound 0.0316 µM, first compound 1 µM
[15] = second compound 0.0316 µM, first compound 3.16 µM
[16] = second compound 0.0316 µM, first compound 10 µM
[17] = second compound 0.1 µM, first compound 0.316 µM
[18] = second compound 0.1 µM, first compound 1 µM
[19] = second compound 0.1 µM, first compound 3.16 µM
[20] = second compound 0.1 µM, first compound 10 µM
[21] = second compound 0.316 µM, first compound 0.316 µM
[22] = second compound 0.316 µM, first compound 1 µM
[23] = second compound 0.316 µM, first compound 3.16 µM
[24] = second compound 0.316 µM, first compound 10 µM
[25] = second compound 1 µM, first compound 0.316 µM
[26] = second compound 1 µM, first compound 1 µM
[27] = second compound 1 µM, first compound 3.16 µM
[28] = second compound 1 µM, first compound 10 µM
[29] = second compound 3.16 µM, first compound 0.316 µM
[30] = second compound 3.16 µM, first compound 1 µM
[31] = second compound 3.16 µM, first compound 3.16 µM
[32] = second compound 3.16 µM, first compound 10 µM
[33] = second compound 10 µM, first compound 0.316 µM
[34] = second compound 10 µM, first compound 1 µM
[35] = second compound 10 µM, first compound 3.16 µM
[36] = second compound 10 µM, first compound 10 µM
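Also: spheroids exposed to the agents for 7 days before readout.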

Molecule `Cn1ncnc1[C@H]1c2n[nH]c(=O)c3cc(F)cc(c23)N[C@@H]1c1ccc(F)cc1` + CNC(=O)c1ccc(Nc2nc(OC3CCCC3)c3c(-c4ccc5nc(C)oc5c4)c[nH]c3n2)c(OC)c1 has an IC50 (second compound 0.0316 µM) greater than 0.1 µM, an IC50 (second compound 0.1 µM) greater than 0.1 µM and an IC50 (second compound 0.316 µM) greater than 0.1 µM. It also gave an IC50 (second compound 1 µM) of less than 0.000316 µM, an IC50 (second compound 3.16 µM) of less than 0.000316 µM and an IC50 (second compound 10 µM) of less than 0.000316 µM. For the same molecule, the viability, T/C (second compound 0.0316 µM, first compound 0.000316 µM) was 92%, the viability, T/C (second compound 0.0316 µM, first compound 0.001 µM) was 99.2% and the viability, T/C (second compound 0.0316 µM, first compound 0.00316 µM) was 88.9%. The viability, T/C (second compound 0.0316 µM, first compound 0.01 µM) was 104%, the viability, T/C [1] was 97.6% and the viability, T/C [2] was 84.6%. The viability, T/C (second compound 0.1 µM, first compound 0.000316 µM) was 109%, the viability, T/C (second compound 0.1 µM, first compound 0.001 µM) was 114% and the viability, T/C (second compound 0.1 µM, first compound 0.00316 µM) was 106%. The viability, T/C (second compound 0.1 µM, first compound 0.01 µM) was 104%, the viability, T/C [3] was 113% and the viability, T/C [4] was 94.4%. The viability, T/C (second compound 0.316 µM, first compound 0.000316 µM) was 77.3%, the viability, T/C (second compound 0.316 µM, first compound 0.001 µM) was 64.4% and the viability, T/C (second compound 0.316 µM, first compound 0.00316 µM) was 56.6%. It also gave a viability, T/C (second compound 0.316 µM, first compound 0.01 µM) of 73.2%, a viability, T/C [5] of 76.1% and a viability, T/C [6] of 57.2%. For the same molecule, the viability, T/C (second compound 1 µM, first compound 0.000316 µM) was 36.9%, the viability, T/C (second compound 1 µM, first compound 0.001 µM) was 34% and the viability, T/C (second compound 1 µM, first compound 0.00316 µM) was 32.4%. For the same molecule, the viability, T/C (second compound 1 µM, first compound 0.01 µM) was 33.9%, the viability, T/C [7] was 32.4% and the viability, T/C [8] was 27.1%. It also gave a viability, T/C (second compound 3.16 µM, first compound 0.000316 µM) of 28.9%, a viability, T/C (second compound 3.16 µM, first compound 0.001 µM) of 33.7% and a viability, T/C (second compound 3.16 µM, first compound 0.00316 µM) of 32.1%. It also gave a viability, T/C (second compound 3.16 µM, first compound 0.01 µM) of 30.8%, a viability, T/C [9] of 28% and a viability, T/C [10] of 21%. The viability, T/C (second compound 10 µM, first compound 0.000316 µM) was 28.8%, the viability, T/C (second compound 10 µM, first compound 0.001 µM) was 34.2% and the viability, T/C (second compound 10 µM, first compound 0.00316 µM) was 31.2%. For the same molecule, the viability, T/C (second compound 10 µM, first compound 0.01 µM) was 28.8%, the viability, T/C [11] was 24.1% and the viability, T/C [12] was 20.8%.

For `Nc1ccn(C2OC(CO)C(O)C2(F)F)c(=O)n1` (stereo unspecified) + CNC(=O)c1ccc(Nc2nc(OC3CCCC3)c3c(-c4ccc5nc(C)oc5c4)c[nH]c3n2)c(OC)c1, the IC50 (second compound 0.0316 µM) was less than 0.0316 µM, the IC50 (second compound 0.1 µM) was less than 0.0316 µM and the IC50 (second compound 0.316 µM) was less than 0.0316 µM. The IC50 (second compound 1 µM) was less than 0.0316 µM, the IC50 (second compound 3.16 µM) was less than 0.0316 µM and the IC50 (second compound 10 µM) was less than 0.0316 µM. It also gave a viability, T/C [1] of 15.7%, a viability, T/C [2] of 17.5% and a viability, T/C [13] of 18%. It also gave a viability, T/C [14] of 16.6%, a viability, T/C [15] of 15.5% and a viability, T/C [16] of 18.3%. For the same molecule, the viability, T/C [3] was 17.9%, the viability, T/C [4] was 16.2% and the viability, T/C [17] was 15.7%. For the same molecule, the viability, T/C [18] was 14.9%, the viability, T/C [19] was 12.5% and the viability, T/C [20] was 17.3%. The viability, T/C [5] was 15.7%, the viability, T/C [6] was 15.5% and the viability, T/C [21] was 16.5%. For the same molecule, the viability, T/C [22] was 18.1%, the viability, T/C [23] was 16.9% and the viability, T/C [24] was 17.2%. The viability, T/C [7] was 14.7%, the viability, T/C [8] was 14.6% and the viability, T/C [25] was 12.9%. The viability, T/C [26] was 13.3%, the viability, T/C [27] was 14.8% and the viability, T/C [28] was 13.2%. For the same molecule, the viability, T/C [9] was 13.6%, the viability, T/C [10] was 15.8% and the viability, T/C [29] was 11.8%. It also gave a viability, T/C [30] of 12.4%, a viability, T/C [31] of 12.9% and a viability, T/C [32] of 13.1%. It also gave a viability, T/C [11] of 13%, a viability, T/C [12] of 12.5% and a viability, T/C [33] of 10.8%. For the same molecule, the viability, T/C [34] was 11.6%, the viability, T/C [35] was 12.7% and the viability, T/C [36] was 11.4%.

`O=c1[nH]cc(F)c(=O)[nH]1` + CNC(=O)c1ccc(Nc2nc(OC3CCCC3)c3c(-c4ccc5nc(C)oc5c4)c[nH]c3n2)c(OC)c1 showed an IC50 (second compound 0.0316 µM) of 7.51 µM, an IC50 (second compound 0.1 µM) of 4.99 µM and an IC50 (second compound 0.316 µM) of 4.06 µM. For the same molecule, the IC50 (second compound 1 µM) was less than 0.0316 µM, the IC50 (second compound 3.16 µM) was less than 0.0316 µM and the IC50 (second compound 10 µM) was less than 0.0316 µM. For the same molecule, the viability, T/C [1] was 110%, the viability, T/C [2] was 104% and the viability, T/C [13] was 103%. For the same molecule, the viability, T/C [14] was 103%, the viability, T/C [15] was 75.5% and the viability, T/C [16] was 41.6%. It also gave a viability, T/C [3] of 91.3%, a viability, T/C [4] of 119% and a viability, T/C [17] of 106%. It also gave a viability, T/C [18] of 98.2%, a viability, T/C [19] of 64.3% and a viability, T/C [20] of 28.3%. The viability, T/C [5] was 68%, the viability, T/C [6] was 64% and the viability, T/C [21] was 57.7%. The viability, T/C [22] was 60.7%, the viability, T/C [23] was 56.5% and the viability, T/C [24] was 29.9%. It also gave a viability, T/C [7] of 34%, a viability, T/C [8] of 40.4% and a viability, T/C [25] of 33.7%. The viability, T/C [26] was 31.7%, the viability, T/C [27] was 32.9% and the viability, T/C [28] was 23.9%. The viability, T/C [9] was 33.4%, the viability, T/C [10] was 37.3% and the viability, T/C [29] was 31.5%. For the same molecule, the viability, T/C [30] was 29.5%, the viability, T/C [31] was 28.5% and the viability, T/C [32] was 20.8%. For the same molecule, the viability, T/C [11] was 35.1%, the viability, T/C [12] was 30.4% and the viability, T/C [33] was 29%. For the same molecule, the viability, T/C [34] was 29%, the viability, T/C [35] was 31.2% and the viability, T/C [36] was 19.7%.
